Columns and labels:
Type in all cases: in vivo
[1] = system: redroot pigweed (Amaranthus retroflexus, AMARE); assay: Pre-emerge test, greenhouse herbicide activity screening; details: rated 14 days after application, 0 = no damage, 100 = complete death
Method in brief: (§1)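 Plants grown in 10 cm pots of sandy loam mix received acetone-dissolved compounds through a moving flat-fan nozzle. Doses ranged from 15 to 1000 g ai/ha. Pre-emerge pots were seeded one day earlier, post-emerge pots 8–21 days earlier. Fourteen days on, each pot was graded 0–100 for damage.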

[2] = system: sicklepod (Cassia obtusifolia, CASOB); assay: as above; details: rated 14 days after application, 0 = no damage, 100 = complete death
Method in brief: as §1

[3] = system: green foxtail (Setaria viridis, SETVI); assay: as above; details: rated 14 days after application, 0 = no damage, 100 = complete death
Method in brief: as §1

[4] = system: johnsongrass (Sorghum halepense, SORHA); assay: as above; details: rated 14 days after application, 0 = no damage, 100 = complete death
Method in brief: as §1

[5] = system: lambsquarters (Chenopodium album, CHEAL); assay: as above; details: rated 14 days after application, 0 = no damage, 100 = complete death
Method in brief: as §1

[6] = system: large crabgrass (Digitaria sanguinalis, DIGSA); assay: as above; details: rated 14 days after application, 0 = no damage, 100 = complete death
Method in brief: as §1

[7] = system: ivyleaf morningglory (Ipomoea hederacea, IPOHE); assay: as above; details: rated 14 days after application, 0 = no damage, 100 = complete death
Method in brief: as §1

[8] = system: barnyardgrass (Echinochloa crus-galli, ECHCG); assay: as above; details: rated 14 days after application, 0 = no damage, 100 = complete death
Method in brief: as §1

[9] = system: velvetleaf (Abutilon theophrasti, ABUTH); assay: as above; details: rated 14 days after application, 0 = no damage, 100 = complete death
Method in brief: as §1

[10] = system: upland rice (Oryza sp., var. Tebonnet, RICE); assay: Post-emerge test, crop safety; details: post-emerge, 14 days after application, rating scale 0-100
Method in brief: (§2)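 Each test used a mechanized track sprayer delivering 187 l/ha of acetone solution at 15–1000 g ai/ha. Post-emerge foliage at 2–3 leaves was treated with added 0.25% v/v non-ionic surfactant and bottom-watered only. Injury was assessed on day 14, where 100 means total kill.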

[11] = system: field corn (Zea mays L., var. Dekalb 535, CORN); assay: Post-emerge test, crop safety; details: post-emerge, 14 days after application, rating scale 0-100
Method in brief: as §2

[12] = system: sicklepod (Cassia obtusifolia, CASOB); assay: Post-emerge test, greenhouse herbicide activity screening; details: post-emerge, 14 days after application, rating scale 0-100
Method in brief: (§3)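 Compounds in acetone were track-sprayed at 187 l/ha, 15–1000 g ai/ha, onto sandy loam pots. Pre-emerge seeds were sown one day before spraying, with surface watering afterwards. Post-emerge plants were at the 2–3 leaf stage and sprayed with 0.25% v/v non-ionic surfactant. Injury was rated 0–100 at 14 days.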

[13] = system: green foxtail (Setaria viridis, SETVI); assay: as above; details: post-emerge, 14 days after application, rating scale 0-100
Method in brief: as §3

[14] = system: johnsongrass (Sorghum halepense, SORHA); assay: as above; details: post-emerge, 14 days after application, rating scale 0-100
Method in brief: as §3

[15] = system: lambsquarters (Chenopodium album, CHEAL); assay: as above; details: post-emerge, 14 days after application, rating scale 0-100
Method in brief: as §3

[16] = system: large crabgrass (Digitaria sanguinalis, DIGSA); assay: as above; details: post-emerge, 14 days after application, rating scale 0-100
Method in brief: as §3

[17] = system: ivyleaf morningglory (Ipomoea hederacea, IPOHE); assay: as above; details: post-emerge, 14 days after application, rating scale 0-100
Method in brief: as §3

[18] = system: redroot pigweed (Amaranthus retroflexus, AMARE); assay: as above; details: post-emerge, 14 days after application, rating scale 0-100
Method in brief: as §3

[19] = system: barnyardgrass (Echinochloa crus-galli, ECHCG); assay: as above; details: post-emerge, 14 days after application, rating scale 0-100
Method in brief: as §3

[20] = system: velvetleaf (Abutilon theophrasti, ABUTH); assay: as above; details: post-emerge, 14 days after application, rating scale 0-100
Method in brief: as §3

[21] = system: upland rice (Oryza sp., var. Tebonnet, RICE); assay: Pre-emerge test, crop safety; details: rated 14 days after application, 0 = no damage, 100 = complete death
Method in brief: as §3

[22] = system: field corn (Zea mays L., var. Dekalb 535, CORN); assay: Pre-emerge test, crop safety; details: rated 14 days after application, 0 = no damage, 100 = complete death
Method in brief: as §3

COc1c(Cl)cc(F)c(-n2c(=O)cc(C(F)(F)F)n(C)c2=O)c1NC(=O)c1ccc2ccccc2c1 [2-75]
0: phytotoxicity rating DIGSA ([16]; 63 g ai/ha) | Pre-emerge phytotoxicity rating (0-100), crop damage, CORN ([22]; 63 g ai/ha) | Pre-emerge phytotoxicity rating (0-100), crop damage, CORN ([22]; 250 g ai/ha)
30: phytotoxicity rating SETVI ([13]; 63 g ai/ha) | Pre-emerge phytotoxicity rating (0-100), crop damage, RICE ([21]; 63 g ai/ha)
60: Pre-emerge Herbicidal Activity, phytotoxicity rating (0-100), SORHA ([4]; 250 g ai/ha) | Pre-emerge Herbicidal Activity, phytotoxicity rating (0-100), IPOHE ([7]; 250 g ai/ha)
80: phytotoxicity rating RICE ([10]; 250 g ai/ha) | phytotoxicity rating SETVI ([13]; 250 g ai/ha) | Pre-emerge phytotoxicity rating (0-100), crop damage, RICE ([21]; 250 g ai/ha)
50: phytotoxicity rating ECHCG ([19]; 250 g ai/ha)
100: Pre-emerge Herbicidal Activity, phytotoxicity rating (0-100), AMARE ([1]; 63 g ai/ha) | Pre-emerge Herbicidal Activity, phytotoxicity rating (0-100), AMARE ([1]; 250 g ai/ha) | Pre-emerge Herbicidal Activity, phytotoxicity rating (0-100), CASOB ([2]; 63 g ai/ha) | Pre-emerge Herbicidal Activity, phytotoxicity rating (0-100), CASOB ([2]; 250 g ai/ha) | Pre-emerge Herbicidal Activity, phytotoxicity rating (0-100), SETVI ([3]; 63 g ai/ha) | Pre-emerge Herbicidal Activity, phytotoxicity rating (0-100), SETVI ([3]; 250 g ai/ha) | Pre-emerge Herbicidal Activity, phytotoxicity rating (0-100), CHEAL ([5]; 63 g ai/ha) | Pre-emerge Herbicidal Activity, phytotoxicity rating (0-100), CHEAL ([5]; 250 g ai/ha) | Pre-emerge Herbicidal Activity, phytotoxicity rating (0-100), DIGSA ([6]; 250 g ai/ha) | Pre-emerge Herbicidal Activity, phytotoxicity rating (0-100), ECHCG ([8]; 250 g ai/ha) | Pre-emerge Herbicidal Activity, phytotoxicity rating (0-100), ABUTH ([9]; 63 g ai/ha) | Pre-emerge Herbicidal Activity, phytotoxicity rating (0-100), ABUTH ([9]; 250 g ai/ha) | phytotoxicity rating CASOB ([12]; 63 g ai/ha) | phytotoxicity rating CASOB ([12]; 250 g ai/ha) | phytotoxicity rating CHEAL ([15]; 63 g ai/ha) | phytotoxicity rating CHEAL ([15]; 250 g ai/ha) | phytotoxicity rating IPOHE ([17]; 63 g ai/ha) | phytotoxicity rating IPOHE ([17]; 250 g ai/ha) | phytotoxicity rating AMARE ([18]; 63 g ai/ha) | phytotoxicity rating AMARE ([18]; 250 g ai/ha) | phytotoxicity rating ABUTH ([20]; 63 g ai/ha) | phytotoxicity rating ABUTH ([20]; 250 g ai/ha)
70: Pre-emerge Herbicidal Activity, phytotoxicity rating (0-100), DIGSA ([6]; 63 g ai/ha) | phytotoxicity rating RICE ([10]; 63 g ai/ha)
10: phytotoxicity rating CORN ([11]; 63 g ai/ha) | phytotoxicity rating ECHCG ([19]; 63 g ai/ha)
15: phytotoxicity rating CORN ([11]; 250 g ai/ha)
40: phytotoxicity rating SORHA ([14]; 250 g ai/ha)
20: Pre-emerge Herbicidal Activity, phytotoxicity rating (0-100), SORHA ([4]; 63 g ai/ha) | Pre-emerge Herbicidal Activity, phytotoxicity rating (0-100), IPOHE ([7]; 63 g ai/ha) | Pre-emerge Herbicidal Activity, phytotoxicity rating (0-100), ECHCG ([8]; 63 g ai/ha) | phytotoxicity rating SORHA ([14]; 63 g ai/ha) | phytotoxicity rating DIGSA ([16]; 250 g ai/ha)

Source: patent US6355799B1, “Substituted benzene compounds, process for their preparation, and herbicidal and defoliant compositions containing them” (ISK Americas Incorporated, priority 1997, dated 2002)
